# Read-outs that look alike come from different tables or passages of the source.
# Target: LMPTP-A (Low Molecular Weight Protein Tyrosine Phosphatase-A) enzyme (Homo sapiens (Human), UniProt P24666)
# Test: LMPTP primary screening / LMPTP (OMFP) enzyme inhibition assay, fluorescence intensity
# Assay type: biochemical
# Protocol: This assay attempts to identify inhibitors of the LMPTP-A (Low Molecular Weight Protein Tyrosine Phosphatase-A) enzyme. It is run in 1536-well format and is measured via fluorescence intensity.
# A listing of materials is provided: • Item, source, catalog no. • LMPTP-A Enzyme Stock Solution (4.22 mg/ml or 206.8 μM), SBMRI Protein Facility, • N/A • OMFP, Sigma, M2629-100MG • Bis-Tris pH 6.0, Fisher Sci, BP301-100 • Triton-X 100, Sigma, T9284 • DTT, Sigma, D9779 • Mol. Grade Water, Mediatech, Inc., 46-000-CM • 1536-well black High base opaque bottom plate, Nexus Biosystems, 00019120
# Final assay conditions are: • 0.625 nM LMPTP-A Enzyme • 400 μM OMFP • 50 mM Bis-Tris pH 6.0 • 1 mM DTT • 0.01% Triton-X 100 • 20 μM test compound • 3% DMSO (2% from substrate and 1% from compounds) • 6 μL reaction volume • 50 minutes incubation at room temp
# Assay Procedure • 1. Prepare Reagents as described in section F. Recipe. • 2. Using LabCyte Echo, transfer 60 nL from 2 mM test compound source plate into assay plate Col. 5-48 (final concentration of test compounds is 20 μM). 60 nL of DMSO should be transferred to col. 1-4 for positive and negative control wells. • 3. Spin plates at 1000 rpm for 1 minute in centrifuge. • 4. […] Using the Bioraptr, add 3 μL/well of enzyme solution to col. 3-48. • 6. Using the Bioraptr, add 3 μL/well of substrate solution to col. 1-48. • 7. Spin plates at 1000 rpm for 1 minute in centrifuge. • 8. Incubate plates in the dark at room temperature for 50 minutes. • 9. Read plates on PerkinElmer Viewlux using a FI protocol.
# [1] = LMPTP-A, OMFP substrate, method of Example 2, read-out: IC50
# Chain of LMPTP-A (Low Molecular Weight Protein Tyrosine Phosphatase-A) enzyme (P24666 whole entry): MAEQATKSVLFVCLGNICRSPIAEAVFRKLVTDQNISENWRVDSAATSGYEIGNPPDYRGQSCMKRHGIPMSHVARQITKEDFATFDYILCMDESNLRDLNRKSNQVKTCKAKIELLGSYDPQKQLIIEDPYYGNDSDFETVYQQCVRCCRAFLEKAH
compound,measurement,setting,value
"CC(C)(C)OC(=O)n1c(-c2cc(NCCCN3CCCCC3)c3ccccc3n2)cc2ccccc21 [Compound I98, tert-butyl 2-{4-[(3-piperidylpropyl)amino]-2-quinolyl}indolecarboxylate]",IC50,[1],> 5000 nM
O=C(NCc1ccccc1)c1ccc(-c2cc(NCCCN3CCCCC3)c3ccccc3n2)cc1 [Compound I253],IC50,[1],200 to 800 nM
O=C(NCC(F)(F)F)c1ccc(-c2cc(NCCCN3CCCCC3)c3ccccc3n2)cc1 [Compound I63],IC50,[1],801 to 5000 nM
"Fc1cccc(-c2cc(NCCCC3CCCNC3)c3ccccc3n2)c1 (centres unmarked) [Compound I162, [2-(3-fluorophenyl)(4-quinolyl)](3-piperidylpropyl)amine]",IC50,[1],801 to 5000 nM
"NC(=O)c1ccc(-c2cc(NCCCN3CCCCCC3)c3ccccc3n2)cc1 [Compound I219, 4-{4-[(3-azaperhydroepinylpropyl)amino]-2-quinolyl}benzamide]",IC50,[1],> 5000 nM
c1ccc2c(NCCCN3CCCCC3)cc(-c3ccc(-c4nn[nH]n4)cc3)nc2c1 [Compound I205],IC50,[1],801 to 5000 nM
N#CCCNC(=O)c1ccc(-c2cc(NCCCN3CCCCC3)c3ccccc3n2)cc1 [Compound I59],IC50,[1],200 to 800 nM
[2-(3-chloro-2-prop-2-enyloxy(4-pyridyl))(4-quinolyl)](3-piperidylpropyl)amine [Compound I91],IC50,[1],> 5000 nM
"COc1ccc(-c2cc(NCCCN3CCCCC3)c3ccc(OC)cc3n2)cc1 [Compound G26, [7-Methoxy-2-(4-methoxy-phenyl)-quinolin-4-yl]-(3-piperidin-1-yl-propyl)-amine]",IC50,[1],> 5000 nM
"Fc1cc(Cl)ccc1-c1cc(NCCCc2cccnc2)c2ccccc2n1 [Compound I204, [2-(4-chloro-2-fluorophenyl)(4-quinolyl)](3-(3-pyridyl)propyl)amine]",IC50,[1],801 to 5000 nM
"COc1ccc(-c2cc(Nc3ccccc3CC3CCN(C)CC3)c3ccccc3n2)cc1 [Compound I37, [2-(4-methoxyphenyl)(4-quinolyl)]{2-[(1-methyl(4-piperidyl))methyl]phenyl}amine]",IC50,[1],> 5000 nM
"COc1ccc(-c2cc(Nc3cccc(CN4CCOCC4)c3)c3ccccc3n2)cc1 [Compound G55, [2-(4-methoxyphenyl)(4-quinolyl)][3-(morpholin-4-ylmethyl)phenyl]amine]",IC50,[1],200 to 800 nM
O=C(O)c1cccc(-c2cc(NCCCN3CCCCC3)c3ccccc3n2)c1 [Compound I128],IC50,[1],801 to 5000 nM
O=C(NCC1CCCO1)c1ccc(-c2cc(NCCCN3CCCCC3)c3ccccc3n2)cc1 (centres unmarked) [Compound I64],IC50,[1],801 to 5000 nM
"NC(=O)c1ccc(-c2cc(Nc3cccc(CN4CCCC4)c3)c3ccccc3n2)cc1 [Compound I5, 4-(4-{[3-(pyrrolidinylmethyl)phenyl]amino}-2-quinolyl)benzamide]",IC50,[1],> 5000 nM
"Cn1cc(-c2cc(NCCCN3CCCCC3)c3ccccc3n2)cn1 [Compound G18, [2-(1-Methyl-1H-pyrazol-4-yl)-quinolin-4-yl]-(3-piperidin-1-yl-propyl)-amine]",IC50,[1],> 5000 nM
COc1ccc(-c2cc(Nc3cccc4cccnc34)c3ccccc3n2)cc1 [Compound G69],IC50,[1],> 5000 nM
"CN(C)c1cc(-c2ccc[nH]2)nc2ccccc12 [Compound G23, Dimethyl-[2-(1H-pyrrol-2-yl)-quinolin-4-yl]-amine]",IC50,[1],> 5000 nM
"Fc1ccc(-c2cc(NCCCN3CCCCC3)c3ccccc3n2)cc1 [Compound G8, [2-(4-Fluoro-phenyl)-quinolin-4-yl]-(3-piperidin-1-yl-propyl)-amine]",IC50,[1],801 to 5000 nM
"CN(C)Cc1cc(CO)cc(Nc2cc(-c3cccc(Cl)c3)nc3ccccc23)c1 [Compound I45, (5-[(dimethylamino)methyl]-3-{[2-(3-chlorophenyl)(4-quinolyl)]amino}phenyl)methan-1-ol]",IC50,[1],801 to 5000 nM
CS(=O)(=O)c1ccc(-c2cc(NCCCN3CCCCC3)c3ccccc3n2)c(C(F)(F)F)c1 [Compound I121],IC50,[1],801 to 5000 nM
"COc1ccc(-c2cc(Nc3ccccc3)c3ccccc3n2)cc1 [Compound G35, [2-(4-Methoxy-phenyl)-quinolin-4-yl]-phenyl-amine]",IC50,[1],801 to 5000 nM
"COc1ccc(-c2cc(Nc3ccccn3)c3ccccc3n2)cc1 [Compound G63, [2-(4-Methoxy-phenyl)-quinolin-4-yl]-pyridin-2-yl-amine]",IC50,"IC50 (nM), LMPTP-A, OMFP substrate, method of Example 2",801 to 5000 nM
COc1ccc(-c2cc(NCCCN3CCCCC3)c3ccccc3n2)cn1 [Compound I156],IC50,[1],801 to 5000 nM
O=C(NCCO)c1ccc(-c2cc(NCCCN3CCCCC3)c3ccccc3n2)cc1 [Compound I227],IC50,[1],801 to 5000 nM
FC(F)(F)c1cc(Cl)ccc1-c1cc(NCCCN2CCCCC2)c2ccccc2n1 [Compound I119],IC50,[1],801 to 5000 nM
"Clc1cccc(-c2cc(Nc3ccccc3CC3CCNCC3)c3ccccc3n2)c1 [Compound I21, [2-(3-chlorophenyl)(4-quinolyl)][2-(4-piperidylmethyl)phenyl]amine]",IC50,[1],801 to 5000 nM
"NC(=O)c1ccc(-c2cc(Nc3ccc(CCN4CCNCC4)cc3)c3ccccc3n2)cc1 [Compound I216, 4-(4-{[4-(2-piperazinylethyl)phenyl]amino}-2-quinolyl)benzamide]",IC50,[1],> 5000 nM
"[2-(3,5-dichlorophenyl)(4-quinolyl)](3-piperidylpropyl)amine [Compound I170]",IC50,[1],801 to 5000 nM
"Clc1cccc(-c2cc(Nc3cccc(CC4CCNCC4)c3)c3ccccc3n2)c1 [Compound I19, [2-(3-chlorophenyl)(4-quinolyl)][3-(4-piperidylmethyl)phenyl]amine]",IC50,[1],801 to 5000 nM
CC(C)C(=O)Nc1ccc(-c2cc(NCCCN3CCCCC3)c3ccccc3n2)cc1 [Compound I56],IC50,[1],801 to 5000 nM
CSc1cncc(-c2cc(NCCCN3CCCCC3)c3ccccc3n2)c1 [Compound I92],IC50,[1],801 to 5000 nM
COc1ncccc1-c1cc(NCCCN2CCCCC2)c2ccccc2n1 [Compound I154],IC50,[1],801 to 5000 nM
"CN1CCCC1CCNc1cc(-c2ccc(C(F)(F)F)cc2C(F)(F)F)nc2ccccc12 (centres unmarked) [Compound I53, {2-[2,4-bis(trifluoromethyl)phenyl](4-quinolyl)}[2-(1-methylpyrrolidin-2-yl)ethyl]amine]",IC50,[1],> 5000 nM
"Clc1cccc(-c2cc(Nc3cccc(CC4CCNCC4)c3)c3ccccc3n2)c1 [Compound I20, [2-(3-chlorophenyl)(4-quinolyl)][3-(4-piperidylmethyl)phenyl]amine]",IC50,[1],801 to 5000 nM
"C[N+]1(C)CCC(Cc2ccccc2Nc2cc(-c3cc(C(F)(F)F)cc(C(F)(F)F)c3)nc3ccccc23)CC1 [Compound I48, {2-[(1,1-dimethyl(4-piperidyl))methyl]phenyl} {2-[3,5-bis(trifluoromethyl)phenyl](4-quinolyl)}amine]",IC50,[1],> 5000 nM
"c1c[nH]c(-c2cc(NCCCC3CCCNC3)c3ccccc3n2)c1 (centres unmarked) [Compound I175, (3-piperidylpropyl)(2-pyrrol-2-yl(4-quinolyl))amine]",IC50,[1],801 to 5000 nM
"COc1ccc(-c2cc(Nc3ccncc3)c3ccccc3n2)cc1 [Compound G65, [2-(4-methoxyphenyl)(4-quinolyl)]-4-pyridylamine]",IC50,[1],801 to 5000 nM
"CCN(CC)C(=O)c1ccc(-c2cc(NCCCN3CCCCC3)c3ccccc3n2)cc1 [Compound I1, N,N-diethyl-4-(4-((3-(piperidin-1-yl)propyl)amino)quinolin-2-yl)benzamide]",IC50,[1],200 to 800 nM
Cn1ccc(-c2cc(NCCCN3CCCCC3)c3ccccc3n2)n1 [Compound I178],IC50,[1],> 5000 nM
Cc1cccc(-c2nc(NCCCN3CCOCC3)c3ccccc3n2)c1 [Entry 1],IC50,"Table 1 quinazolinone series, CP sample (cherry pick of DMSO solution from NIH MLSMR), read-out: LMPTP (OMFP) (IC50)",7120 nM
same,IC50,"Table 1 quinazolinone series, P sample (purchased from commercial sources), read-out: LMPTP (OMFP) (IC50)",13500 nM
same,IC50,"initial screening hits (Scheme 4), read-out: IC50",7120 nM
same,IC50,read-out: LMPTP (OMFP) IC50,13500 nM
"COc1ccc(CCNc2cc(-c3ccc(OC)cc3)nc3ccccc23)cc1 [Compound G85, [2-(4-methoxyphenyl)(4-quinolyl)][2-(4-methoxyphenyl)ethyl]amine]",IC50,[1],801 to 5000 nM
"FC(F)(F)c1cc(-c2cc(Nc3ccccc3CC3CCNCC3)c3ccccc3n2)cc(C(F)(F)F)c1 [Compound I49, {2-[3,5-bis(trifluoromethyl)phenyl](4-quinolyl)}[2-(4-piperidylmethyl)phenyl]amine]",IC50,[1],> 5000 nM
"CCN(CC)Cc1cccc(Nc2cc(-c3ccc(OC)cc3)nc3ccccc23)c1 [Compound G61, (3-Diethylaminomethyl-phenyl)-[2-(4-methoxy-phenyl)-quinolin-4-yl]-amine]",IC50,[1],801 to 5000 nM
CCCCOc1ncccc1-c1cc(NCCCN2CCCCC2)c2ccccc2n1 [Compound I93],IC50,[1],801 to 5000 nM
"CN(C)CCc1ccc(Nc2cc(-c3ccc(C(N)=O)cc3)nc3ccccc23)cc1 [Compound I217, 4-[4-({4-[2-(dimethylamino)ethyl]phenyl}amino)-2-quinolyl]benzamide]",IC50,[1],> 5000 nM
CSc1ccc(-c2cc(NCCCN3CCCCC3)c3ccccc3n2)c(C(F)(F)F)c1 [Compound I114],IC50,[1],801 to 5000 nM

# — patent US10626094B2 (La Jolla Institute of Allergy & Immunology, priority 2014, dated 2020)
